# Columns and labels:
# [1] = cited from earlier work
# [2] = at physiological temperatures; Unger 1993; cited from earlier work
# [3] = system: fibrosarcomas implanted in the flank of Fisher 344 rats; test: In vivo MRI signal enhancement and signal intensity ratio (SIR) in rats bearing flank fibrosarcomas, catheter hyperthermia
# Description: Fibrosarcocomas were transplanted in the flank of fisher 344 rats and allowed to grow to 17-19 mm in diameter. Rats were anesthetized with pentobarbital (source/amount) and a 16 gauge catheter was placed through the center of the tumor. Heated water (56° C., 1.8 ml/s) was passed through the catheter to provided hyperthermia. During MRI scans, the heating water was doped with 0.25 M MnSO4 to prevent flow image artifacts. Gradient recalled echo was used with a Tr of 23 ms, Te of 1.4 ms, and flip angles of 5, 15, 30, 40, 50, 60 degrees for the initial T1 weighted image. Subsequent drug uptake scans were performed at a flip angle of 33°. 3D volume images, 12 slices 1 mm thick, were taken with a field of view of 6 cm with a pixel size of 234×234 μm. Four and signal image averaging was used for liposome and Gd-DTPA experiments yielding scan times of 1 min, 45 sec and 30 sec respectively.
# 1NEX image averaging was used for the first twenty minutes of liposome or Gd uptake. Subsequent images were taken at 4NEX for the remainder of the experiment (90-120 minutes).
# The liposome formulations were studied in fibrosarcomas implanted in the flank of Fisher 344 rats. The center of the tumor was heated using a catheter through which hot was water circulated. […] Liposomes were then administered intravenously, followed by MR imaging.
# In vivo drug relative concentrations were performed by signal intensity image analysis over regions of interest (ROI) within heated tumors. The white boxes present in FIGS. 2A, 2B and 2C indicate these ROIs. […] Muscle in the non-tumor bearing leg of the animal was used as a non-heated, normal tissue control.
# [4] = In vitro MRI T1 relaxivity measurements as a function of temperature and concentration; type: physicochemical; conditions: linear regression, in vitro samples, 2-T magnet
# Description: Three control stock solutions of manganese sulfate (MnSO4.H2O), free DOX and MnSO4.H2O in a molar ratio of 0.902:1 (DOX:Mn), and MnSO4.H2O with thermally sensitive liposomes that were formed without the presence of MnSO4.H2O. These solutions, along with liposome solutions, were then diluted to concentrations from 0.25-8 mM. The solutions were placed in […] NMR tubes cut to a three-inch length.
# All MRI experiments were performed at the Center for In vivo Microscopy at Duke University in a 2-T 30-cm bore diameter magnet (Signa, G.E. Medical Systems, Milwaukee, Wis.). […] Each experiment had six to eight sample tubes, which were contained within an exposed sample holder, and placed inside a 3.81 cm birdcage coil providing RF excitation. […]
# Images that were obtained were analyzed by selecting a region of interest and measuring average intensity for each sample dilution. […]
# To quantify the concentration of drug in vivo using MRI, in vitro experiments were performed to determine the concentration- and temperature-dependence of T1 shortening. These experiments measured signal intensity resulting from proton spin realignment to the bulk magnetic field after excitation from repetitive radio frequency pulses. […] MnSO4 liposome-DOX formulation measured over a range of drug concentrations (T=29.9° C.). […]
# [5] = system: fibrosarcoma (FSA-1); test: Antitumor effect: time for tumors to reach five times the volume on the day of treatment; type: in vivo, rat
# Description: Tumor model. […] The fibrosarcoma was transplanted subcutaneously in the flanks of 8-week-old female Fischer 344 rats (Charles River Laboratories, Wilmington, Mass., U.S.A.) under anesthesia using intraperitoneal ketamine (9 mg/kg body weight) and xylazine (10 mg/kg body weight). Tumors were allowed to grow for approximately 2 weeks to a diameter of 10-12 mm before treatment.
# Each group of rats (except the control group) received an equivalent dose of 5 mg doxorubicin/kg body weight by intravenous injection and/or 1 hour of hyperthermia. Local hyperthermia was delivered by means of an 18-gauge catheter that was placed through the center of the tumor and through which heated water (˜50° C., 1.8 mL/s) was passed.
# The remaining 6-7 rats in each treatment group were included in the survival analysis. […] Final images were taken after tumors cooled to room temperature. […] After therapy, the rats were monitored as they recovered from anesthesia. Tumor volumes were measured three times per week for 60 days or until the tumor volume reached five times the volume on the day of treatment. At these endpoints, the rats were killed by carbon dioxide asphyxiation. […] The five-times-the-initial-volume cutpoint was chosen based on guidelines from the institutional animal care and use committee. No rats were killed before the specified endpoints were reached.
# Descriptive summary statistics are expressed as mean values with 95% confidence intervals, except for the time-to-five-times-tumor-volume data, which are expressed as median values with 95% confidence intervals. To avoid assuming a normal distribution, nonparametric or semi-parametric statistical methods were used. Group comparisons were conducted with the Kruskal-Wallis test for more than two groups and the Wilcoxon test for between-group differences. For the antitumor efficacy data, the primary endpoint (time to reach five times the original tumor volume) was analyzed by the Kaplan-Meier product-limit method, using the Wilcoxon rank test for between-group differences. […]
smiles,measurement,setting,value
O=C([O-])CN(CCN(CC(=O)[O-])CC(=O)[O-])CCN(CC(=O)[O-])CC(=O)[O-].[Gd+3] [Gd-DTPA],fraction excreted in urine,[1]; in about 6 hours,83%±14%
same,mean elimination half-life,[1]; in vivo,about 0.2±0.13 hours
same,relaxivity,[2],approximately 44.5 (mM·sec·° C.)^−1
same,time to reach SIR plateau in tumor-enhancing region,[3]; enhanced tumor region,≤ 10 min
same,femoral vessel SIR value reached,"[3]; femoral vein, normalized to non-heated muscle",2.0
same,time at which femoral vessel SIR value was reached,"[3]; femoral vein, post injection",10 min
same,MR signal enhancement pattern,[3]; without hyperthermia (HT),Enhancement occurs in all tissues with a high degree of non-uniformity in the tumor
"O=S(=O)([O-])[O-].[Mn+2] [MnSO4, manganese sulfate]",intercept of relaxivity as a function of temperature (intercept±S.E.),[4],7.28 ± 0.12 mM/s
same,slope of relaxivity as a function of temperature (slope±S.E.),[4],−0.082±0.003 (mM·sec·° C.)^−1
"COc1cccc2c1C(=O)c1c(O)c3c(c(O)c1C2=O)C[C@@](O)(C(=O)CO)C[C@@H]3O[C@H]1C[C@H](N)[C@H](O)[C@H](C)O1 [free doxorubicin, doxorubicin]",tumor growth time / growth delay,"[5]; alone, without hyperthermia",statistically significantly longer tumor growth times than the saline control
same,complete tumor regression upon censoring at 60 days,[5]; during / plus hyperthermia,one of the six rats
same,tumor growth time / growth delay,[5]; with hyperthermia,statistically significantly longer tumor growth times than the saline control

# Source: patent US7769423B2 (Duke University, priority 2002, dated 2010)
